{"source": "paper PMC9376946", "about": "“Peptide-RNA Coacervates as a Cradle for the Evolution of Folded Domains” (Journal of the American Chemical Society, 2022)", "tested_on": "polyU", "assay": "CW-EPR of PA-12 in the presence of polyU (bound, slow-motion population)", "format": "binding", "conditions": "spectral simulation", "procedure": "Lyophilized, spin-labeled peptides were dissolved in Milli-Q water and centrifuged at 4000 rpm for 10 min to remove insoluble aggregates. The soluble fractions were used to prepare stock solutions of 250–500 μM peptide. Labeled peptide concentrations were determined by comparing the area under the curve of the EPR signal against that of standard solutions of 10–285 μM TEMPO. For the EPR measurements in D2O, 200 μL of the stock solution was lyophilized and re-dissolved in D2O. The concentration of the unlabeled peptide stock solutions was determined using the bicinchoninic acid assay (Thermo Fisher Scientific) and ranged from 0.8 to 1.2 mM peptide. A stock solution of 500 mM MES, pH 5.6 was used to adjust all samples to a final concentration of 50 mM MES, pH 5.6. Aliquots of 10 mg/mL polyuridylic acid (polyU; Sigma Aldrich) were prepared in Milli-Q water and diluted as necessary. For CW-EPR measurements, a quartz capillary of 0.6 mm i.d. and 0.84 mm o.d. was filled with 7–8 μL of the sample and sealed with Critoseal (Fisherbrand, Fisher Scientific) at one end. A single capillary was placed in an X-band EPR tube of 2 mm i.d. and 2.4 mm o.d. for measurements, except for spin concentration below 50 μM, where two capillaries were used.\nEach sample was freshly prepared and the time to collect […] CW-EPR data was 30–40 min.\nCW-EPR spectra were recorded on an Elexsys E500 X-Band (9.5 GHz) Bruker spectrometer using a high sensitivity resonator at room temperature. The following parameters were used: 0.1 mT field modulation amplitude, a 15 mT scan range, and 20 mW microwave power. Each scan was 42 s and at least 9 scans were accumulated for each data set. For samples with a high concentration of polyU or a low concentration of labeled peptide, at least 25–36 scans were collected to improve the signal to noise (S/N) ratio. Simulations of the spectra were performed using the “Chili” routine of EasySpin (www.easyspin.org).[21]\nAfter characterizing the dynamic and structural properties of PA in solution, we proceeded to explore these properties upon interaction with the homopolymeric RNA molecule polyU. […] PA-12, like the unlabeled peptide, produced coacervates.[17] […] Using CW-EPR, binding of PA to RNA can be tracked through spin label dynamics. We initially kept the concentration of PA-12 constant at 150 μM and varied the amount of polyU. The CW-EPR spectra in Figure 3B indicate superposition of two populations, I and II. […] The relative intensity of II increases with the amount of polyU added, indicating binding of PA-12 to polyU. The percentage of II increased from 32% at 0.1 mg/mL polyU to 93% at 1 mg/mL polyU. Increasing to 2 mg/mL polyU and reducing the PA-12 concentration to 100 μM increased the population of II to 95% (Figures 3B and S15G). Such restricted motion and dynamic components have also been reported for proteins undergoing phase separation.[38],[39]", "note": "Where “and” joins values, the source holds several entries; their conditions need not be identical. Equal values may be shown once.", "data": [{"sequence": "RIRRASVEELTCVPGIGPRLARRILERLA [PA-12, Precursor-Arg peptide in which position 12 has been modified with a cysteine and attached to an M-TEMPO spin label]", "values": [{"measurement": "population I (fast motion)", "setting": "30 μM PA-12, 1 mg/mL polyU", "result": "40 ± 5% and 40%"}, {"measurement": "population II (slow motion, polyU-bound)", "setting": "30 μM PA-12, 1 mg/mL polyU", "result": "60 ± 5% and 60%"}, {"measurement": "population I (fast motion)", "setting": "50 μM PA-12, 1 mg/mL polyU", "result": "25 ± 5", "unit": "%"}, {"measurement": "population II (slow motion, polyU-bound)", "setting": "50 μM PA-12, 1 mg/mL polyU", "result": "75 ± 5", "unit": "%"}, {"measurement": "population I (fast motion)", "setting": "100 μM PA-12, 1 mg/mL polyU", "result": "10 ± 4", "unit": "%"}, {"measurement": "population II (slow motion, polyU-bound)", "setting": "100 μM PA-12, 1 mg/mL polyU", "result": "90 ± 4", "unit": "%"}, {"measurement": "population II (slow motion, polyU-bound)", "setting": "100 μM PA-12, 2 mg/mL polyU, 50 mM MES pH 5.6, room temperature", "result": 95, "unit": "%"}, {"measurement": "population II (slow motion, polyU-bound)", "setting": "150 μM PA-12, 0.1 mg/mL polyU, 50 mM MES pH 5.6, room temperature", "result": 32, "unit": "%"}, {"measurement": "population II (slow motion, polyU-bound)", "setting": "150 μM PA-12, 1 mg/mL polyU, 50 mM MES pH 5.6, room temperature", "result": "93 ± 2% and 93%"}, {"measurement": "population I (fast motion)", "setting": "150 μM PA-12, 1 mg/mL polyU", "result": "7 ± 2", "unit": "%"}, {"measurement": "population I (fast motion)", "setting": "200 μM PA-12, 1 mg/mL polyU", "result": "4 ± 2", "unit": "%"}, {"measurement": "population II (slow motion, polyU-bound)", "setting": "200 μM PA-12, 1 mg/mL polyU", "result": "96 ± 2% and 96%"}]}]}
